We go through 15 molecules from PubChem BioAssay (NCI).

SMILES strings stand for the structures.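 A five-concentration, 48-hour dose response in 96-well plates underlies each endpoint, interpolated linearly between surrounding concentrations. GI50 is the concentration that inhibits growth by half. TGI is the concentration that stops growth completely.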

Among the test systems are HCT-15 colon; LOX IMVI melanoma; M14 melanoma; OVCAR-5 ovarian; RPMI-8226 leukemia; SK-MEL-5 melanoma; SNB-75 CNS; SW-620 colon; UO-31 renal.
What all share (experiment): growth of human tumour cells (NCI), 48 h

With `CC(=O)O[C@H]1CCC2[C@@H]3CCC4Nc5[nH]ncc5C[C@]4(C)C3CC[C@@]21C` (stereo not given in full), the TGI is over 100 µM in the assay with HCT-15 colon; over 100 µM in the assay with LOX IMVI melanoma; over 100 µM with M14 melanoma; over 100 µM with OVCAR-5 ovarian; over 100 µM with RPMI-8226 leukemia; 74.9 µM in the assay with SK-MEL-5 melanoma. Further, the TGI with SNB-75 CNS, with SW-620 colon and with UO-31 renal was over 100 µM throughout.
For `COC(=O)[C@H]1C=C[C@@H](C)n2c(=O)c3cc4ccccc4cc3c(=O)n21`, the TGI with HCT-15 colon, in the assay on LOX IMVI melanoma, in the assay on M14 melanoma, in the assay on OVCAR-5 ovarian, in the assay on RPMI-8226 leukemia and in the assay with SK-MEL-5 melanoma was over 100 µM in each case. Also, the TGI in the assay with SNB-75 CNS, with SW-620 colon and with UO-31 renal was over 100 µM each time.
On to `O=[N+]([O-])c1ccc(N2N=C(c3ccc(NCc4nc5ccccc5[nH]4)cc3)CC2c2ccco2)cc1` (stereo not given), for which the TGI with HCT-15 colon was 84.9 µM; in the assay on LOX IMVI melanoma it was 41.6 µM; in the assay on M14 melanoma, 61.3 µM; in the assay with OVCAR-5 ovarian, over 100 µM; in the assay on RPMI-8226 leukemia, 94.5 µM; in the assay on SK-MEL-5 melanoma it was 31.9 µM. Moreover, the TGI in the assay on SNB-75 CNS was over 100 µM; in the assay on SW-620 colon it was over 100 µM; with UO-31 renal, 55.4 µM.
`Cc1ccc(NC(=O)CSc2nnc(-c3ccc(N=Cc4ccc(Cl)cc4)cc3)o2)cc1`: the TGI with HCT-15 colon, in the assay on LOX IMVI melanoma, in the assay on M14 melanoma, in the assay on RPMI-8226 leukemia, in the assay on SK-MEL-5 melanoma and with SNB-75 CNS was over 100 µM each time. Moreover, the TGI in the assay with SW-620 colon and in the assay on UO-31 renal was over 100 µM in each case.
Consider `CC(C)N(C(=O)C12C3C4C1(I)C1C2C3(I)C41C(=O)N(C(C)C)C(C)C)C(C)C` (stereo not given), for which the TGI in the assay with HCT-15 colon is over 59.8 µM; in the assay on LOX IMVI melanoma, over 60.5 µM; with M14 melanoma it was over 100 µM; in the assay with OVCAR-5 ovarian, over 100 µM; in the assay with RPMI-8226 leukemia it was over 72.5 µM; in the assay with SK-MEL-5 melanoma, over 100 µM. Also, the TGI in the assay on SNB-75 CNS was over 100 µM; in the assay with SW-620 colon, over 59.6 µM; in the assay on UO-31 renal, over 100 µM.
Take `Cc1c(/C=N/NC(=O)c2ccc(Cl)cc2)c(=O)n(-c2ccccc2)n1C`: the TGI in the assay with HCT-15 colon, in the assay on LOX IMVI melanoma, in the assay on M14 melanoma, in the assay with RPMI-8226 leukemia, with SNB-75 CNS and in the assay on SW-620 colon was over 100 µM throughout. In the assay with UO-31 renal, this molecule had a TGI of over 100 µM.
In the case of `O=S(=O)(c1ccccc1)C1CN2OC1(S(=O)(=O)c1ccccc1)CC2c1ccc(Br)cc1` (stereo not given), the TGI with HCT-15 colon, in the assay with LOX IMVI melanoma, in the assay on M14 melanoma, with OVCAR-5 ovarian, in the assay with RPMI-8226 leukemia and in the assay on SK-MEL-5 melanoma was over 100 µM in each case. In addition, the TGI was 22.1 µM in the assay with SNB-75 CNS, over 100 µM in the assay on SW-620 colon and over 100 µM with UO-31 renal.
Take `COc1c[c]([Hg][O]C(C)=O)c(OC)c(NC(=O)CC(C)=O)[c]1[Hg][O]C(C)=O`: the GI50 in the assay with HCT-15 colon was 3.11 µM; with M14 melanoma, 2.11 µM; in the assay with OVCAR-5 ovarian, 19.3 µM; in the assay with RPMI-8226 leukemia, 4.22 µM; with SK-MEL-5 melanoma, 2.75 µM; with SNB-75 CNS, 14 µM. In addition, in the assay on UO-31 renal, the GI50 was 19.2 µM. The TGI turned out to be 4.56 µM in the assay on M14 melanoma; 33.7 µM in the assay with OVCAR-5 ovarian; 33.4 µM in the assay with RPMI-8226 leukemia; 11.2 µM in the assay with SK-MEL-5 melanoma; 28 µM in the assay on SNB-75 CNS; 33.3 µM with UO-31 renal.
`Cc1nc([N+](=O)[O-])cn1CC(=N)N`: the TGI in the assay with HCT-15 colon, with LOX IMVI melanoma, in the assay on M14 melanoma, with RPMI-8226 leukemia, in the assay with SK-MEL-5 melanoma and in the assay on SNB-75 CNS was over 100 µM in each case. Besides, the TGI in the assay with SW-620 colon and in the assay on UO-31 renal was over 100 µM throughout.
Take `Cc1ccc(S(=O)(=O)c2ccc(N)cc2)cc1`: the TGI with HCT-15 colon, with M14 melanoma, with OVCAR-5 ovarian, in the assay on RPMI-8226 leukemia, in the assay with SK-MEL-5 melanoma and with SNB-75 CNS was over 100 µM throughout. The TGI in the assay on SW-620 colon and with UO-31 renal was over 100 µM each time.
Regarding `Cc1cc(C)nc(NS(=O)(=O)c2ccc(NC(=O)c3cccc4c(Nc5ccc(S(N)(=O)=O)cc5)c5ccccc5nc34)cc2)n1`, the TGI with HCT-15 colon is over 100 µM; with LOX IMVI melanoma, 99.8 µM; in the assay on M14 melanoma, over 100 µM; with OVCAR-5 ovarian, over 100 µM; with RPMI-8226 leukemia it was over 100 µM; in the assay with SK-MEL-5 melanoma, over 95.9 µM. For the same molecule, the TGI with SNB-75 CNS, in the assay on SW-620 colon and with UO-31 renal was over 100 µM throughout.
Consider `C/C(CC(=O)Nc1cccc(Cl)c1C)=N\NC(=O)c1ccncc1`, for which the TGI in the assay with LOX IMVI melanoma, with M14 melanoma, in the assay on OVCAR-5 ovarian, in the assay on RPMI-8226 leukemia, in the assay with SK-MEL-5 melanoma and with SNB-75 CNS was over 100 µM throughout. For the same molecule, the TGI in the assay with SW-620 colon and in the assay on UO-31 renal was over 100 µM in each case.
As for `CCCN1CN(C(C(=O)N[C@@H]2C(=O)N3C2SC(C)(C)C3C(=O)O)c2ccc(O)cc2)CSC1=S` (stereo not given in full), the TGI with HCT-15 colon, with LOX IMVI melanoma, with M14 melanoma, with OVCAR-5 ovarian, in the assay with RPMI-8226 leukemia and with SK-MEL-5 melanoma was over 100 µM throughout. Also, the TGI in the assay on SNB-75 CNS and with UO-31 renal was over 100 µM in each case.
Regarding `COc1ncc(-c2ccc3ncnc(Nc4cccc(Cl)c4)c3c2)cc1NS(=O)(=O)C1CC1`, the GI50 in the assay on M14 melanoma, in the assay with RPMI-8226 leukemia, with SK-MEL-5 melanoma and in the assay with SW-620 colon was over 100 µM in each case. The TGI in the assay on M14 melanoma, in the assay on RPMI-8226 leukemia, in the assay on SK-MEL-5 melanoma and in the assay with SW-620 colon was over 100 µM each time.
Turning to `CN[C@@H](C)[C@@H](NC)c1ccccc1`, the TGI with HCT-15 colon, with LOX IMVI melanoma, in the assay with M14 melanoma, in the assay with RPMI-8226 leukemia, with SK-MEL-5 melanoma and in the assay on SNB-75 CNS was over 100 µM in each case. Further, the TGI in the assay on SW-620 colon and in the assay on UO-31 renal was over 100 µM in each case.
